Consider 10 compounds from ChEMBL document CHEMBL1201862, “PubChem BioAssay data set” (2004).

Molecules are shown by their SMILES.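 Step 1: Grow cells in 96-well plates. Step 2: Expose to compound for 48 hours at 5 concentrations. Step 3: Interpolate endpoints linearly; if unreached, use highest concentration. Here, GI50 denotes the concentration required for 50% inhibition of growth.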 Activity calls are given as the source filed them. Cut-off read from the data, not from the text of the source: active = GI50 up to about 1.1 µM and inactive = higher. Where a SMILES comes first, the peptide text is derived from it. [ ]: non-standard residue; d: D form. The star is where a group is joined. Phe(4-NO2) = N[CH](Cc1ccc([N+](=O)[O-])cc1)C(=O)O; Boc = CC(C)(C)OC(=O)*; OBn = c1ccc(CO*)cc1

Experiment in all cases: NCI anticancer screen, dose series, 48 h
Experiment [1] deals with A498.
The test system of experiment [2] is A549.
The subject of experiment [3] is COLO 205.
Experiment [4] has as its system HCC 2998.
The test system of experiment [5] is HCT-116.
Experiment [6] concerns Hs-578T.
Experiment [7] deals with MDA-MB-231.
The subject of experiment [8] is MOLT-4.
For experiment [9], the system named is Malme-3M.
In experiment [10] the test system is NCI-H460.
The test system of experiment [11] is NCI/ADR-RES.
For experiment [12], the system named is OVCAR-4.
For experiment [13], the system named is RPMI-8226.
Experiment [14] relates to SF-268.
For experiment [15], the system named is SK-MEL-28.
Experiment [16] has as its system SK-OV-3.
In experiment [17] the test system is SNB-19.
Experiment [18] has as its system SNB-75.
In experiment [19] the test system is TK-10.
Experiment [20] deals with UACC-62.

With `Cc1occc1C(=S)Nc1ccc(Cl)c(C(=O)OC(C)C2CC2)c1` (stereo not given), the GI50 was 22.3 µM (inactive) in [1]; 35.2 µM (inactive) in experiment [2]; 20.1 µM (inactive) in experiment [3]; 20.3 µM (inactive) in [4]; 26.5 µM (inactive) in experiment [5]; 27.7 µM (inactive) in [6]. For the same compound, the GI50 in experiment [7] is 17.4 µM (inactive); in [8] it was 17.4 µM (inactive); in [9] it was 16.4 µM (inactive); in experiment [10], 35.7 µM (inactive); in experiment [11] it was 19.3 µM (inactive); in experiment [12] it was 15.3 µM (inactive). For the same compound, the GI50 in [13] is 24.8 µM (inactive); in experiment [14], 22.6 µM (inactive); in [15], 57.9 µM (inactive); in experiment [16], 21.6 µM (inactive); in [17], 17.3 µM (inactive); in [18] it was 20.4 µM (inactive). Further, the values for the GI50 in experiment [19] and in experiment [20] were 37.5 µM (inactive) and 22.8 µM (inactive), respectively.

Turning to `COc1ccccc1Nc1nc(N)nc(N)c1N`, the GI50 in experiment [1] was > 100 µM (inactive); in [2], > 100 µM (inactive); in [3], 48.2 µM (inactive); in [4] it was > 100 µM (inactive); in [5] it was 19 µM (inactive); in [6], > 100 µM (inactive). Besides, the GI50 in experiment [7] was 29.4 µM (inactive); in experiment [8] it was 14.7 µM (inactive); in experiment [9] it was > 100 µM (inactive); in experiment [10] it was 38.5 µM (inactive); in [11], > 100 µM (inactive); in [12], > 100 µM (inactive). Moreover, the GI50 was 34.4 µM (inactive) in [13]; 64.1 µM (inactive) in [14]; > 100 µM (inactive) in experiment [15]; > 100 µM (inactive) in experiment [16]; > 100 µM (inactive) in experiment [17]; > 100 µM (inactive) in experiment [18]. Moreover, the GI50 in experiment [19] is > 100 µM (inactive); in experiment [20], 57.5 µM (inactive).

Regarding `CN(C)CCCSc1nc2c(c(=N)n1-c1ccccc1)c(=S)n(-c1ccccc1)c(=S)n2-c1ccccc1`, the GI50 in experiment [1] was 2.42 µM (inactive); in experiment [2], 1.95 µM (inactive); in experiment [3] it was 1.9 µM (inactive); in experiment [4], 1.45 µM (inactive); in experiment [5] it was 1.98 µM (inactive); in experiment [6] it was 3.12 µM (inactive). In addition, the GI50 is 1.61 µM (inactive) in experiment [7]; 0.789 µM (active) in experiment [8]; 2.04 µM (inactive) in experiment [9]; 1.82 µM (inactive) in experiment [10]; 2.59 µM (inactive) in experiment [11]; 1.79 µM (inactive) in [12]. The GI50 in experiment [13] was 0.39 µM (active); in experiment [14], 1.73 µM (inactive); in experiment [15] it was 2.04 µM (inactive); in experiment [16], 2.65 µM (inactive); in [17], 2.51 µM (inactive); in [18] it was 1.63 µM (inactive). Also, the values for the GI50 in experiment [19] and in [20] were 1.71 µM (inactive) and 1.78 µM (inactive), respectively.

In the case of `COc1cccc(/C=C\c2ccnc3ccccc23)c1`, the GI50 in experiment [1], in experiment [2], in [3], in [4], in experiment [5] and in experiment [6] was > 10 µM (inactive) in each case. The GI50 in experiment [7], in experiment [8], in experiment [9], in experiment [10], in experiment [11] and in [12] was > 10 µM (inactive) each time. Further, the GI50 in [13], in experiment [14], in [15], in experiment [16], in experiment [17] and in experiment [18] was > 10 µM (inactive) each time. Besides, the GI50 in experiment [19] and in experiment [20] was > 10 µM (inactive) throughout.

For `CN(C)/C=C1\CCc2ccc([N+](=O)[O-])cc2C1=O`, the GI50 in experiment [1] is > 100 µM (inactive); in [2], > 100 µM (inactive); in [3] it was 25.5 µM (inactive); in [4] it was 70.8 µM (inactive); in experiment [5], 17.9 µM (inactive); in [6] it was > 100 µM (inactive). Moreover, the GI50 in [7] was 17.4 µM (inactive); in experiment [8], 25.1 µM (inactive); in experiment [9] it was 33 µM (inactive); in [10], 28.4 µM (inactive); in experiment [11] it was 75 µM (inactive); in experiment [12], 17.9 µM (inactive). In addition, the GI50 is 27.4 µM (inactive) in experiment [13]; > 100 µM (inactive) in experiment [14]; > 100 µM (inactive) in experiment [15]; > 100 µM (inactive) in experiment [16]; > 100 µM (inactive) in [17]; > 100 µM (inactive) in experiment [18]. Further, the GI50 in experiment [19] is > 100 µM (inactive); in [20], 24.5 µM (inactive).

On to `COC(=O)CCC(NC(=O)OC(C)(C)C)C(=O)NC(Cc1ccc([N+](=O)[O-])cc1)C(=O)NCC(=O)OCc1ccccc1` (stereo not given) (Boc-Glu(OMe)-[Phe(4-NO2)]-Gly-OBn; configuration not given here), for which the GI50 in experiment [1] was > 100 µM (inactive); in experiment [2], > 100 µM (inactive); in experiment [3], 38.7 µM (inactive); in [4], 99.8 µM (inactive); in [5], > 100 µM (inactive); in [6], 23 µM (inactive). Moreover, the GI50 in experiment [7] is > 60 µM (inactive); in experiment [8] it was > 100 µM (inactive); in experiment [9] it was > 100 µM (inactive); in experiment [10], > 100 µM (inactive); in experiment [11], > 80.7 µM (inactive); in experiment [12], > 92.3 µM (inactive). In addition, the GI50 in experiment [13] was > 100 µM (inactive); in [14], 37.2 µM (inactive); in experiment [15] it was > 100 µM (inactive); in experiment [16], > 82.2 µM (inactive); in [17], > 55.7 µM (inactive); in experiment [18] it was 18.6 µM (inactive). Also, the GI50 in [19] was > 100 µM (inactive); in [20], > 31.6 µM (inactive).

For `COC(=O)C[C@H](CCSC)NC(=O)C[C@H](CCSC)NC(=O)C[C@H](CCSC)NC(=O)OC(C)(C)C`, the GI50 in experiment [1] is 21 µM (inactive); in experiment [2] it was 43.6 µM (inactive); in [3], > 100 µM (inactive); in experiment [4], > 100 µM (inactive); in experiment [5] it was 37.1 µM (inactive); in experiment [6] it was 30.3 µM (inactive). The GI50 in experiment [7] is 38.5 µM (inactive); in experiment [8], > 100 µM (inactive); in experiment [9] it was > 100 µM (inactive); in experiment [10] it was 69.8 µM (inactive); in [11], > 100 µM (inactive); in experiment [12] it was 20.3 µM (inactive). The GI50 in experiment [13] is > 100 µM (inactive); in experiment [14] it was 20.4 µM (inactive); in experiment [15] it was > 100 µM (inactive); in experiment [16], 20 µM (inactive); in experiment [17] it was 20.7 µM (inactive); in experiment [18], 13.4 µM (inactive). Further, the GI50 was 19.1 µM (inactive) in [19] and 27.9 µM (inactive) in experiment [20].

With `Cn1c(=O)n2c(=O)n(C)c(=O)n2c1=O`, the GI50 was > 100 µM (inactive) in experiment [1]; > 100 µM (inactive) in [2]; > 100 µM (inactive) in [3]; > 100 µM (inactive) in [4]; 91.8 µM (inactive) in experiment [5]; > 100 µM (inactive) in experiment [6]. The GI50 in [7], in experiment [8], in experiment [9], in experiment [10], in experiment [11] and in [12] was > 100 µM (inactive) throughout. In addition, the GI50 in experiment [13], in experiment [14], in [15], in [16], in experiment [17] and in experiment [18] was > 100 µM (inactive) each time. The GI50 in [19] and in experiment [20] was > 100 µM (inactive) in each case.

As for `O=C(NCCN1CCCC1)c1cn2c(ccc3sc4ccccc4c(=O)c32)n1`, the GI50 in experiment [1] is 16.3 µM (inactive); in experiment [2] it was 7.19 µM (inactive); in experiment [3], 11.7 µM (inactive); in experiment [4], 6.56 µM (inactive); in [5], 4.02 µM (inactive); in experiment [6], 17 µM (inactive). Moreover, the GI50 in experiment [7] was 2.16 µM (inactive); in [8] it was 0.422 µM (active); in [9] it was 16 µM (inactive); in [10] it was 1.01 µM (active); in experiment [11], 13.3 µM (inactive); in experiment [12], 12.3 µM (inactive). The GI50 is 1.52 µM (inactive) in experiment [13]; 12.4 µM (inactive) in experiment [14]; 16.6 µM (inactive) in [15]; 16.3 µM (inactive) in experiment [16]; 13.7 µM (inactive) in experiment [17]; 19.1 µM (inactive) in experiment [18]. The GI50 in experiment [19] is 12.5 µM (inactive); in experiment [20], 17.1 µM (inactive).

As to `C=C1[C@@H](OC(C)=O)/C=C/C2C3C(=O)[C@@](C)(OC(C)=O)[C@H]([C@H](OC(C)=O)[C@]4(O)[C@@H](C)C(=O)O[C@H]4[C@H]1Cl)[C@@]23C` (stereo not given in full), the GI50 in experiment [1], in [2], in experiment [3], in [4], in experiment [5] and in experiment [6] was > 100 µM (inactive) in each case. Besides, the GI50 in experiment [7], in [8], in [9], in experiment [10], in experiment [11] and in [12] was > 100 µM (inactive) each time. Also, the GI50 in [13], in experiment [14], in experiment [15], in experiment [16], in experiment [17] and in [18] was > 100 µM (inactive) each time. For the same compound, the GI50 in experiment [19] and in experiment [20] was > 100 µM (inactive) throughout.
